Laboratory results from paper PMC6143625, “A high throughput screen for next-generation leads targeting malaria parasite transmission” (Nature Communications, 2018).

What was measured:
[1] = Stability analysis of DDD599/BPCA (pH buffers, simulated gastric fluid, glutathione); assay type: physicochemical
Experimental: (§1) DMPK analyses were performed by the Dundee University Drug Discovery Unit and BPCA/DDD599 stability analysis were undertaken by chemists at GlaxoSmithKline using in-house, standardised approaches.
123 Supplementary Table 1. Stability analysis of DDD599/BPCA pH10 Ox pH10 pH6 Ox pH6 pH4 Ox pH4 SGF Ox SGF GSH
Additionally, it was also tested in the presence of glutathione. Green text denoted acceptable 127 stability and red text denotes unacceptable stability under test conditions. At pH10 regardless of the presence of 128 H2O2, DDD599/BPCA was unfavourably unstable. […]

[2] = Pharmacokinetic analysis in naïve mice; assay type: in vivo, BALB/c mice
Experimental: DDD291 and DDD881 were then evaluated for in vivo transmission-blocking activity in a mouse model of transmission. […] DDD881 was also administered similarly on day 4 of infection only 30 min prior to mosquito feed in a separate cohort of mice (Supplementary Data 5).
Eight phenylhydrazine-treated mice were infected with P. berghei constitutively expressing GFP. On day 3 of infection, they were assigned into four groups of two mice (DMSO A + B; DDD291 A + B; DDD881 A + B and C + D). Three groups received either 50 mg kg^−1 DDD291, 50 mg kg^−1 DDD881 or DMSO + vehicle control by IP injection. […] The fourth group received a 50 mg kg^−1 DDD881 dose on day 4, 30 min prior to mosquito feed. c Seven days after feeding, mosquitoes were dissected (n = 17–52 per condition) and oocysts recorded by fluorescent microscopy and automated image analysis. Horizontal bars indicate the mean. d PK analysis of DDD881. BALB/c mice were dosed with 50 mg kg^−1 DDD881 (n = 3) and plasma concentrations were monitored over time.

[3] = Mouse liver microsome clearance; assay type: in vitro ADME
Experimental: as §1

[4] = mouse, plasma, intraperitoneal, 50 mg kg^−1, BALB/c mice, n = 3

With `O=C(CCl)Nc1ccc(Br)cc1` [BPCA, N-(4-bromophenyl)-2-chloroacetamide] the remaining at 24 h ([1]; Britton Robinson pH4 buffer + 20M% H2O2, pH 4, pH4 Ox) was 100%, the remaining at 24 h ([1]; Britton Robinson pH4 buffer, pH 4) was 100% and the half-life ([1]; Britton Robinson pH4 buffer, pH 4, pH4 = Britton Robinson pH4) was > 41.7 days. For the same compound, the remaining at 24 h ([1]; Britton Robinson pH6 buffer + 20M% H2O2, pH 6, pH6 Ox) was 100%, the remaining at 24 h ([1]; Britton Robinson pH6 buffer, pH 6) was 100% and the remaining at 24 h ([1]; Britton Robinson pH10 buffer + 20M% H2O2, pH 10, pH10 Ox) was 87%. The remaining at 24 h ([1]; Britton Robinson pH10 buffer, pH 10) was 87%, the “t10% degradation / hours” value ([1]; GSH) was < 1 h and the remaining at 24 h ([1]; Phosphate buffer pH7.4 with 5mM Glutathione, pH 7.4, GSH) was 0%. For the same compound, the “t10% degradation / hours” value ([1]; SGF) was 118 h, the half-life ([1]; SGF = Simulated Gastric Fluid) was 25.3 days and the “t10% degradation / hours” value ([1]; SGF Ox) was 512 h. The half-life ([1]; SGF Ox = Simulated Gastric Fluid + 20M% H2O2) was > 41.7 days, the remaining at 24 h ([1]; Simulated Gastric Fluid + 20M% H2O2, SGF Ox) was 99% and the remaining at 24 h ([1]; Simulated Gastric Fluid, SGF) was 98%. For the same compound, the “t10% degradation / hours” value ([1]; pH4) was > 1000 h, the half-life ([1]; pH 4, pH4 Ox = Britton Robinson pH4 buffer + 20M% H2O2) was > 41.7 days and the “t10% degradation / hours” value ([1]; pH4 Ox) was > 1000 h. For the same compound, the “t10% degradation / hours” value ([1]; pH6) was > 1000 h, the half-life ([1]; pH 6, pH6 = Britton Robinson pH6 buffer) was > 41.7 days and the half-life ([1]; pH 6, pH6 Ox = Britton Robinson pH6 buffer + 20M% H2O2) was > 41.7 days. The “t10% degradation / hours” value ([1]; pH6 Ox) was > 1000 h, the half-life ([1]; pH 7.4, GSH = Phosphate buffer pH7.4 with 5mM Glutathione) was < 0.0417 days and the “t10% degradation / hours” value ([1]; pH10) was 18 h. For the same compound, the half-life ([1]; pH 10, pH10 = Britton Robinson pH10 buffer) was 3.92 days, the half-life ([1]; pH 10, pH10 Ox = Britton Robinson pH10 buffer + 20M% H2O2) was 3.83 days and the “t10% degradation / hours” value ([1]; pH10 Ox) was 18 h.
For `O=S(=O)(NCC1(O)CCOc2ccccc21)c1ccc(Br)s1` (stereo not shown) [DDD01035881], the plasma concentration ([2]; 50 mg kg^−1, up to 120 min after dosing) was ~ 1000 ng ml^−1, the Cmax [2, 4] was 1580 ng/mL and the Tmax [2, 4] was 0.00346 days.
With `OC1(CN2CCC(Oc3cccc(C(F)(F)F)c3)CC2)CCNC1` (stereo not shown) [DDD01245291] the “mouse liver microsome clearance rate” value [3] was 4.2 ml min^−1 g^−1 Liver.
